In US7795381B2, “Methods and materials for cancer treatment” (Mayo Foundation for Medical Education and Research, priority 2001, dated 2010):
Entries after “also recorded” stand apart in the source; their conditions may differ. No end group written: not given here.

Legend:
Assay type in all cases: cell-based, human
CD4+ T cells (HTL lines) [1] = assay: MHC restriction analysis of HTL proliferative response (anti-HLA-DR/-DQ blocking, HLA-transfected L-cells, LCL); settings: for ability to trigger HTL restricted by other alleles such as HLA-DR1 or -DR4: 2 experiments with cells from 2 donors; for MHC restriction of the induced CD4+ T-cell (HTL) proliferative response: anti-DR/anti-DQ antibody blocking, HLA-transfected L-cells, allogeneic LCL
Method: (§1) Polypeptides gp10074-89, gp100175-189 and gp100576-590 were tested for their capacity to stimulate CD4^+ T cells obtained from four healthy, MHC-typed individuals in primary in vitro cultures using polypeptide-pulsed autologous dendritic cells (DC). The method used to generate tumor antigen-reactive HTL lines and clones using polypeptide-stimulated peripheral blood mononuclear cells (PBMC) was recently described in detail (Kobayashi H et al., Cancer Res 60:5228 (2000)). Briefly, DC were generated in tissue culture from adherent monocytes that were cultured for 7 days in the presence of GM-CSF and IL-4. A total of (1×10^4) polypeptide-pulsed DC (10 μg/ml for 2 hr) were irradiated (4,200 rad) and co-cultured with 3×10^4 autologous purified CD4^+ T cells (using magnetic microbeads from Miltenyi Biotech) in each well of a 96-round bottom well culture plate. Seven days later, the cultures were restimulated with polypeptide-pulsed irradiated autologous PBMC and two days later, human rIL-2 was added at a final concentration of 10 IU/ml. After 7 days, the microcultures were tested for their proliferative responses to polypeptide as described below. Those micro-wells showing a proliferative response to polypeptide (at least 2.5 fold over background) were expanded in 24 or 48-well plates by weekly restimulation with polypeptides and irradiated autologous PBMC. In some instances T-cell lines were cloned by limiting dilution and used for further studies. Culture medium for all procedures consisted of RPMI-1640 supplemented with 5% human male AB serum, 0.1 mM MEM nonessential amino acids, 1 mM sodium pyruvate, 2 mM L-glutamine, and 50 μg/ml gentamicin.
T cells (3×10^4/well) were mixed with irradiated APC in the presence of various concentrations of antigen (polypeptides, tumors or tumor lysates), in 96-well culture plates. APC consisted of either PBMC (1×10^5/well), HLA-DR-expressing L-cells (3×10^4/well), EBV-LCL or melanoma tumor cells (3×10^4/well), pretreated with IFN-γ (500 U/ml for 48 h) to enhance MHC expression. Proliferation assays were incubated at 37° C. in a 5% CO2 incubator for 72 h and during the last 16 h, each well was pulsed with 0.5 μCi/well of [^3H]-thymidine (Amersham Pharmacia Biotech, Piscataway, N.J.). […] The radioactivity incorporated into DNA, which correlates with cell proliferation, was measured in a liquid scintillation counter after harvesting the cell cultures onto glass fiber filters. […] The stimulation index (SI) was calculated by dividing the mean radioactivity (cpm) obtained in the presence of antigen by the mean radioactivity (cpm) obtained in the absence of antigen but in the presence of APC.

CD4+ T cells (HTL lines) [2] = assay: T-cell proliferative response to polypeptide, dose curve ([3H]-thymidine); settings: for polypeptide concentration required to obtain 50% of the maximal proliferation: HLA-DR7-restricted HTL lines, polypeptide presented by autologous PBMC
Method: as §1, with “Culture medium for all procedures consisted of RPMI-1640 supplemented with 5% human male AB serum, 0.1 mM MEM nonessential amino acids, 1 mM sodium pyruvate, 2 mM L-glutamine, and 50 μg/ml gentamicin.” left out
T cells (3×10^4/well) were mixed with irradiated APC in the presence of various concentrations of antigen (polypeptides, tumors or tumor lysates), in 96-well culture plates. […] The radioactivity incorporated into DNA, which correlates with cell proliferation, was measured in a liquid scintillation counter after harvesting the cell cultures onto glass fiber filters. […] The stimulation index (SI) was calculated by dividing the mean radioactivity (cpm) obtained in the presence of antigen by the mean radioactivity (cpm) obtained in the absence of antigen but in the presence of APC.

[3] = test system: melanoma tumor cells or tumor lysates presented by APC; assay: Recognition of naturally processed antigen by polypeptide-reactive HTL (proliferation, GM-CSF/IFN-γ ELISA); settings: for HTL recognition of melanoma tumor cell lysates presented by autologous APC / HTL recognition of antigen presented directly by intact melanoma cells: HLA-DR7-restricted HTL lines; for HTL recognition of melanoma tumor cell lysates presented by autologous APC: 697 mel lysate; for HTL recognition of antigen presented directly by intact melanoma cells: HLA-DR7+ melanoma (HT-144); for recognition of naturally processed antigen by HTL reactive to the polypeptide: MHC class II positive melanomas or APC fed with tumor lysates
Text: Recognition of naturally processed antigen by polypeptide-reactive T-cells can be an important parameter to determine whether a predicted T-cell epitope can be used to elicit an immune response against tumor cells. HTL may recognize polypeptide/MHC class II complexes directly on tumor cells that are MHC class II positive and as a consequence the T-cells will become activated and produce cytokines that provide help to CTL or cytokines that may inhibit tumor cell growth.
T cells (3×10^4/well) were mixed with irradiated APC in the presence of various concentrations of antigen (polypeptides, tumors or tumor lysates), in 96-well culture plates. APC consisted of either PBMC (1×10^5/well), HLA-DR-expressing L-cells (3×10^4/well), EBV-LCL or melanoma tumor cells (3×10^4/well), pretreated with IFN-γ (500 U/ml for 48 h) to enhance MHC expression. Proliferation assays were incubated at 37° C. in a 5% CO2 incubator for 72 h and during the last 16 h, each well was pulsed with 0.5 μCi/well of [^3H]-thymidine (Amersham Pharmacia Biotech, Piscataway, N.J.). In some cases, culture supernatants were collected before the addition of [^3H]-thymidine for the determination of lymphokine production using ELISA kits (Pharmingen, San Diego, Calif.). The radioactivity incorporated into DNA, which correlates with cell proliferation, was measured in a liquid scintillation counter after harvesting the cell cultures onto glass fiber filters. […] The stimulation index (SI) was calculated by dividing the mean radioactivity (cpm) obtained in the presence of antigen by the mean radioactivity (cpm) obtained in the absence of antigen but in the presence of APC.

[4] = test system: PBMC from normal individuals; assay: In vitro immunization of PBMC using polypeptide-pulsed DC (CTL induction)
Text: See, Manici et al., J Exp Med 189:871 (1999); Fujita et al., Eur J Immunol 28:305 (1998); Zarour et al., Cancer Res 60:4946 (2000); Touloukian et al., J Immunol 164:3535 (2000); Zarour et al., Proc Natl Acad Sci USA 97:400 (2000); Yasukawa et al., Blood 92:3355 (1998).

melanoma cells = assay: Antigen-specific cytotoxicity, JAM assay; settings: HLA-DQw6-restricted HTL; DQw6 positive melanoma cell line (1102 mel)
Method: The capacity of HTL lines and clones to kill tumor cells expressing the appropriate polypeptide/MHC complexes was evaluated using the JAM assay (Matzinger P, J Immunol Methods 145:185 (1991)), which measures the DNA retained by target living cells after incubation with effector T-cells. Briefly, target cells were labeled with of [^3H]-thymidine for 18 hrs in tissue culture. After washing and counting the cells, they were incubated at various effectors to target ratio in 96-well round-bottomed plates for 36 hours. The cultures were then harvested onto glass fiber filters, and the amount of radioactivity retained in DNA is measured in a scintillation counter. The percent cytotoxicity was calculated by the ratio of cpm obtained in the absence of T-cells over the cpm obtained in the presence of different amounts of T-cells X 100. All determinations were done in triplicates.

Substance	ability to trigger HTL restricted by other alleles such as HLA-DR1 or -DR4 (CD4+ T cells (HTL lines) [1])	MHC restriction of the induced CD4+ T-cell (HTL) proliferative response (CD4+ T cells (HTL lines) [1])	polypeptide concentration required to obtain 50% of the maximal proliferation (CD4+ T cells (HTL lines) [2]) [µg/mL]	affinity of T-cell response, higher than the response to polypeptide gp10074-89 (CD4+ T cells (HTL lines) [2]; by amount of polypeptide required to achieve 50% of maximal proliferative response) [fold]	HTL recognition of melanoma tumor cell lysates presented by autologous APC [3]	HTL recognition of antigen presented directly by intact melanoma cells [3]	recognition of naturally processed antigen by HTL reactive to the polypeptide [3]	induction of anti-tumor CTL responses [4]	cytotoxicity of polypeptide-reactive HTL (melanoma cells)
SLAVVSTQLIMPGQE [gp100576-590]	not able to trigger	restricted by the HLA-DR7 allele	~0.04	~15	could not be detected	could not be detected	did not proliferate or produce lymphokines		
GPTLIGANASFSIALN [gp10074-89]	not able to trigger	restricted by the HLA-DR7 allele	~0.6		efficient at recognizing tumor cell lysates	effective in recognizing antigen	can recognize naturally processed antigen; also recorded: capable of recognizing naturally processed antigen		
gp100177-186: potent HLA-A2-restricted CTL epitope included in polypeptide gp100175-189 (AMLGTHTMEV; UniProt P40967 177-186, looked up, fragment)								very effective in inducing anti-tumor CTL responses	
GRAMLGTHTMEVTVY [gp100175-189, GRAMLGTHTMEVTVY]									high levels of cytotoxicity
